The record followed here is ChEMBL document CHEMBL5634121, “Discovery of novel G9a/GLP covalent inhibitors for the treatment of triple-negative breast cancer” (Eur J Med Chem, 2023).

The term IC50 denotes the concentration that gives 50% inhibition.

Test [1] relates to MDA-MB-231. Kind of test: Induction of apoptosis in human MDA-MB-231 cells assessed as late apoptotic cells at 10 uM incubated for 72 hrs by Annexin V and PI staining based flow cytometry analysis (reference value: 0.45 %). The format is functional. (A flow cytometer gives signals particle by particle.)
In test [2] the target is T1, Histone-lysine N-methyltransferase EHMT1 (Homo sapiens, UniProt Q9H9B1).
T1 sequence (Q9H9B1 whole entry): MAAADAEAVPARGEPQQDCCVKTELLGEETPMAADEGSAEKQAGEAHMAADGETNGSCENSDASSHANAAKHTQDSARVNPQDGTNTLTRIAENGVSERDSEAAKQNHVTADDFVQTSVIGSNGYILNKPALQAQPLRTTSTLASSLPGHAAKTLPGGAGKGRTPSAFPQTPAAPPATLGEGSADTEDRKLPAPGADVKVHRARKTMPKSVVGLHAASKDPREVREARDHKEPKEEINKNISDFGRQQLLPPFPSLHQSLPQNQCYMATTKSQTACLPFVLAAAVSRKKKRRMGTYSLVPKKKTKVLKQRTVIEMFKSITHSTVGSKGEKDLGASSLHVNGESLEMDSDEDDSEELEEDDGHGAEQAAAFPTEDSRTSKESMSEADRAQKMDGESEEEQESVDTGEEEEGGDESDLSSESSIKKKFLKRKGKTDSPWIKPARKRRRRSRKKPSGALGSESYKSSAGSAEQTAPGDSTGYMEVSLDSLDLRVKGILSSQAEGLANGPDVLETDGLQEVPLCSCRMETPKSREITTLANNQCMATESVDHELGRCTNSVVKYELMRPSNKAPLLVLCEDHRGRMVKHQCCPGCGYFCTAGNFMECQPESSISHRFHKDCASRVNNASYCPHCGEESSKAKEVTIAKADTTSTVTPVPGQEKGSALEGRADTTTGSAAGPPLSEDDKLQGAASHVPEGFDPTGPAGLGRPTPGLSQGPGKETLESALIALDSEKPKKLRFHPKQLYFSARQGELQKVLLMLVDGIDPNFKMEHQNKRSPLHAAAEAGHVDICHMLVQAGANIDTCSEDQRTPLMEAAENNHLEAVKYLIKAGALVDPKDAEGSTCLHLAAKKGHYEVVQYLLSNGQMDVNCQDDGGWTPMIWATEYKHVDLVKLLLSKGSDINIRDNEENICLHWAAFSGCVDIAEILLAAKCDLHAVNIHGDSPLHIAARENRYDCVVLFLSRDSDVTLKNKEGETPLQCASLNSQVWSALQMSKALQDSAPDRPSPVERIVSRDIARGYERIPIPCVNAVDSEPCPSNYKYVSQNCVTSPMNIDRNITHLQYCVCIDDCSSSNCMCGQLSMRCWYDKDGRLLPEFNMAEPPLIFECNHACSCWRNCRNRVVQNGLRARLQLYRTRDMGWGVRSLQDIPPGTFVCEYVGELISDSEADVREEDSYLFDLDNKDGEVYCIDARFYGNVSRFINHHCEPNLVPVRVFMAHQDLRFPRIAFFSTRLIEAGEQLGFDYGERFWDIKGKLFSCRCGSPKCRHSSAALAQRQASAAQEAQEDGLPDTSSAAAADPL
The test can be described thus: Inhibition of GLP (unknown origin).

Test [3] has as its system MDA-MB-231. The test can be described thus: Induction of apoptosis in human MDA-MB-231 cells assessed as viable cells at 5 uM incubated for 72 hrs by Annexin V and PI staining based flow cytometry analysis (reference value: 98.31 %). The test is classed as functional. The conditions noted are these: read-out: Activity.
For test [4], the system named is MDA-MB-231. The test can be described thus: Induction of apoptosis in human MDA-MB-231 cells assessed as viable cells at 10 uM incubated for 72 hrs by Annexin V and PI staining based flow cytometry analysis (reference value: 98.31 %). The format is functional. The conditions noted are these: read-out: Activity.

Consider `C=CC(=O)Nc1cccc(-c2nc(NC3CCN(C)CC3)c3cc(OC)c(OC)cc3n2)c1`, for which, in the test on MDA-MB-231 [1], the Activity came out at 5.89%. In test [2], this compound displayed an IC50 of 458 nM. The viability at 5 µM in the test on MDA-MB-231 [3] was 94.6%. Moreover, the viability at 10 µM in the test on MDA-MB-231 [4] is 89.1%.
